# In PubChem BioAssay (NCI):
#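 48-hour exposure; five concentrations; linearly interpolated endpoints. Abbreviation: GI50, concentration required for 50% inhibition of growth. TGI is the concentration that stops growth completely.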
# Key:
# Test in all cases: inhibition of tumour cell growth, NCI panel, 48 h
# SK-MEL-2 melanoma = test system: SK-MEL-2 melanoma
# T-47D breast = test system: T-47D breast
# UACC-62 melanoma = test system: UACC-62 melanoma
# MOLT-4 leukemia = test system: MOLT-4 leukemia
# COLO 205 colon = test system: COLO 205 colon
# ACHN renal = test system: ACHN renal
# UO-31 renal = test system: UO-31 renal
# NCI-H226 lung = test system: NCI-H226 lung
# HOP-92 NSCLC = test system: HOP-92 NSCLC
# NCI-H460 lung = test system: NCI-H460 lung
# MCF7 breast = test system: MCF7 breast
# HS 578T breast = test system: HS 578T breast
# HOP-62 NSCLC = test system: HOP-62 NSCLC
# HCT-116 colon = test system: HCT-116 colon
# HT29 colon = test system: HT29 colon
# SNB-19 CNS = test system: SNB-19 CNS
# SK-MEL-28 melanoma = test system: SK-MEL-28 melanoma
# M14 melanoma = test system: M14 melanoma
# OVCAR-3 ovarian = test system: OVCAR-3 ovarian
# MDA-MB-468 breast = test system: MDA-MB-468 breast
# RXF 393 renal = test system: RXF 393 renal
# SK-MEL-5 melanoma = test system: SK-MEL-5 melanoma
# 786-0 renal = test system: 786-0 renal
# SW-620 colon = test system: SW-620 colon
# IGROV1 ovarian = test system: IGROV1 ovarian
# DU-145 prostate = test system: DU-145 prostate
# CAKI-1 renal = test system: CAKI-1 renal
# NCI-H23 lung = test system: NCI-H23 lung
# U251 CNS = test system: U251 CNS
# CCRF-CEM leukemia = test system: CCRF-CEM leukemia
# SR leukemia = test system: SR leukemia
# NCI/ADR-RES ovarian = test system: NCI/ADR-RES ovarian
# MDA-MB-435 = test system: MDA-MB-435
# NCI-H522 lung = test system: NCI-H522 lung
# A549 NSCLC = test system: A549 NSCLC
# SF-295 CNS = test system: SF-295 CNS
# LOX IMVI melanoma = test system: LOX IMVI melanoma
# MDA-MB-231 breast = test system: MDA-MB-231 breast
# KM12 colon = test system: KM12 colon
# SN12C renal = test system: SN12C renal
# EKVX NSCLC = test system: EKVX NSCLC
# SNB-75 CNS = test system: SNB-75 CNS
# UACC-257 melanoma = test system: UACC-257 melanoma
# OVCAR-8 ovarian = test system: OVCAR-8 ovarian
# SF-539 CNS = test system: SF-539 CNS
# K-562 leukemia = test system: K-562 leukemia
# OVCAR-5 ovarian = test system: OVCAR-5 ovarian
# SK-OV-3 ovarian = test system: SK-OV-3 ovarian
# A498 renal = test system: A498 renal
# RPMI-8226 leukemia = test system: RPMI-8226 leukemia
# HCT-15 colon = test system: HCT-15 colon
# SF-268 CNS = test system: SF-268 CNS
# HL-60(TB) leukemia = test system: HL-60(TB) leukemia
# PC-3 prostate = test system: PC-3 prostate
# TK-10 renal = test system: TK-10 renal
# BT-549 breast = test system: BT-549 breast
# HCC-2998 colon = test system: HCC-2998 colon
# OVCAR-4 ovarian = test system: OVCAR-4 ovarian
# MALME-3M melanoma = test system: MALME-3M melanoma
compound,measurement,setting,value
O=C(Nc1ccc(-c2ccc3c(c2)NC(=O)/C3=C\c2ccc[nH]2)cc1)Nc1cccc(Cl)c1,GI50,SK-MEL-2 melanoma,2.2 µM
same,TGI,SK-MEL-2 melanoma,6.05 µM
same,GI50,T-47D breast,0.424 µM
same,TGI,T-47D breast,5.36 µM
same,GI50,UACC-62 melanoma,2.1 µM
same,TGI,UACC-62 melanoma,6.03 µM
same,GI50,MOLT-4 leukemia,0.895 µM
same,TGI,MOLT-4 leukemia,11.1 µM
same,GI50,COLO 205 colon,1.92 µM
same,TGI,COLO 205 colon,3.79 µM
same,GI50,ACHN renal,1.81 µM
same,TGI,ACHN renal,6.57 µM
same,GI50,UO-31 renal,1.77 µM
same,TGI,UO-31 renal,12.7 µM
same,GI50,NCI-H226 lung,2.51 µM
same,TGI,NCI-H226 lung,9.27 µM
same,GI50,HOP-92 NSCLC,4.81 µM
same,TGI,HOP-92 NSCLC,24.4 µM
same,GI50,NCI-H460 lung,0.766 µM
same,TGI,NCI-H460 lung,4 µM
same,GI50,MCF7 breast,0.329 µM
same,TGI,MCF7 breast,7.58 µM
same,GI50,HS 578T breast,2.73 µM
same,TGI,HS 578T breast,8.74 µM
same,GI50,HOP-62 NSCLC,1.99 µM
same,TGI,HOP-62 NSCLC,6.15 µM
same,GI50,HCT-116 colon,1.68 µM
same,TGI,HCT-116 colon,11.7 µM
same,GI50,HT29 colon,1.86 µM
same,TGI,HT29 colon,4.54 µM
same,GI50,SNB-19 CNS,4.7 µM
same,TGI,SNB-19 CNS,35.8 µM
same,GI50,SK-MEL-28 melanoma,3.09 µM
same,TGI,SK-MEL-28 melanoma,10.2 µM
same,GI50,M14 melanoma,3.23 µM
same,TGI,M14 melanoma,26.1 µM
same,GI50,OVCAR-3 ovarian,1.69 µM
same,TGI,OVCAR-3 ovarian,3.85 µM
same,GI50,MDA-MB-468 breast,0.286 µM
same,TGI,MDA-MB-468 breast,0.838 µM
same,GI50,RXF 393 renal,2.07 µM
same,TGI,RXF 393 renal,4.52 µM
same,GI50,SK-MEL-5 melanoma,1.88 µM
same,TGI,SK-MEL-5 melanoma,4.5 µM
same,GI50,786-0 renal,2.42 µM
same,TGI,786-0 renal,7.45 µM
same,GI50,SW-620 colon,2.29 µM
same,TGI,SW-620 colon,11.7 µM
same,GI50,IGROV1 ovarian,1.7 µM
same,TGI,IGROV1 ovarian,3.78 µM
same,GI50,DU-145 prostate,4.76 µM
same,TGI,DU-145 prostate,92.8 µM
same,GI50,CAKI-1 renal,1.33 µM
same,TGI,CAKI-1 renal,6.39 µM
same,GI50,NCI-H23 lung,1.08 µM
same,TGI,NCI-H23 lung,3.79 µM
same,GI50,U251 CNS,2.98 µM
same,TGI,U251 CNS,11.6 µM
same,GI50,CCRF-CEM leukemia,0.846 µM
same,TGI,CCRF-CEM leukemia,4.41 µM
same,GI50,SR leukemia,1.27 µM
same,TGI,SR leukemia,32.5 µM
same,GI50,NCI/ADR-RES ovarian,2.14 µM
same,TGI,NCI/ADR-RES ovarian,6.01 µM
same,GI50,MDA-MB-435,1 µM
same,TGI,MDA-MB-435,14.1 µM
same,GI50,NCI-H522 lung,1.6 µM
same,TGI,NCI-H522 lung,5.1 µM
same,GI50,A549 NSCLC,2.09 µM
same,TGI,A549 NSCLC,7.09 µM
same,GI50,SF-295 CNS,1.9 µM
same,TGI,SF-295 CNS,5.02 µM
same,GI50,LOX IMVI melanoma,1.53 µM
same,TGI,LOX IMVI melanoma,3.39 µM
same,GI50,MDA-MB-231 breast,1.64 µM
same,TGI,MDA-MB-231 breast,3.86 µM
same,GI50,KM12 colon,0.0672 µM
same,TGI,KM12 colon,2 µM
same,GI50,SN12C renal,4.44 µM
same,TGI,SN12C renal,24.3 µM
same,GI50,EKVX NSCLC,0.775 µM
same,TGI,EKVX NSCLC,10.7 µM
same,GI50,SNB-75 CNS,2.97 µM
same,TGI,SNB-75 CNS,7.93 µM
same,GI50,UACC-257 melanoma,3.42 µM
same,TGI,UACC-257 melanoma,24.5 µM
same,GI50,OVCAR-8 ovarian,2.44 µM
same,TGI,OVCAR-8 ovarian,6.53 µM
same,GI50,SF-539 CNS,1.43 µM
same,TGI,SF-539 CNS,3.06 µM
same,GI50,K-562 leukemia,1.09 µM
same,TGI,K-562 leukemia,> 100 µM
same,GI50,OVCAR-5 ovarian,1.78 µM
same,TGI,OVCAR-5 ovarian,3.76 µM
same,GI50,SK-OV-3 ovarian,3.43 µM
same,TGI,SK-OV-3 ovarian,14.4 µM
same,GI50,A498 renal,3.46 µM
same,TGI,A498 renal,11.1 µM
same,GI50,RPMI-8226 leukemia,2.62 µM
same,TGI,RPMI-8226 leukemia,15.3 µM
same,GI50,HCT-15 colon,1.9 µM
same,TGI,HCT-15 colon,10.8 µM
same,GI50,SF-268 CNS,4.6 µM
same,TGI,SF-268 CNS,60.9 µM
same,GI50,HL-60(TB) leukemia,1.64 µM
same,TGI,HL-60(TB) leukemia,14.5 µM
same,GI50,PC-3 prostate,2.19 µM
same,TGI,PC-3 prostate,11.2 µM
same,GI50,TK-10 renal,2.88 µM
same,TGI,TK-10 renal,9.85 µM
same,GI50,BT-549 breast,2.33 µM
same,TGI,BT-549 breast,6.65 µM
same,GI50,HCC-2998 colon,1.78 µM
same,TGI,HCC-2998 colon,5.61 µM
same,GI50,OVCAR-4 ovarian,1.76 µM
same,TGI,OVCAR-4 ovarian,9.71 µM
same,GI50,MALME-3M melanoma,2.32 µM
same,TGI,MALME-3M melanoma,7.2 µM
